Data set [1] relates to A delta nerve fibres. In words: isolated nerve fibre model (electrophysiology of A delta fibres). As to the method: In a first step, an isolated nerve fibre model was used and the effect of a 25% dilution (nutrient solution) of LGP10-16 on the different electrophysiological variables of the A delta nerve fibres was evaluated. The stimulated fibres from the A delta type correspond to nociceptive sensory fibres. 250 μl of LGP10-16 and 750 μl of nutrient solution were used in this test.

The subject of data set [2] is sciatic nerve ligation or chronic constriction injury (CCI) model. Briefly: conditioned place preference (CPP) test, spontaneous pain, CCI model. Type of data set: in vivo, rat. Conditions: LGP10-16 25%; day 14 and day 21. The text has this: The conditioned place preference (CPP) test assesses emotional responses; it is based on the evaluation of an associated learning behaviour in response to a new aversive environment. The CPP apparatus (70×30×30 cm) is divided into 3 compartments: two test compartments of identical dimensions and a third one considered as a neutral zone, which is narrower. The two test compartments have different visual and tactile characteristics (colour and texture of the walls and floor), so that the animal can differentiate them well and can be isolated by movable doors, so that communication between the three compartments can be allowed or blocked. On the pre-conditioning day, the animal was allowed to roam freely in the three compartments for 30 min, and the time spent in each compartment was measured ([…] that spend more than 60% in one compartment were excluded).
On conditioning days, animals were administered the drug and confined for 15 min in one of the test compartments (always in the same compartment) in order to associate the drug administration to that area. This conditioning procedure was repeated for each administration of the drug. […] The CPP value is expressed as the difference between the […]. […]

In data set [3] the test system is guinea-pig ileum LMMP. In words: guinea-pig ileum LMMP preparation, inhibition of contractile activity. The text has this:
In a second step, the effect of different concentrations of LGP10-16 on preparations of mouse vas deferens and guinea-pig ileum LMMP was studied. […] In the case of this preparation, after washing, the curve has the same appearance, and the LGP10-16 activity is the same in both curves. To further investigate these differences, the battery of guinea-pig ileum experiments was repeated, this time without washing between the two curves, to see if the effect changed in any way. […] This is a clear synergic effect, as a result of the continued presence of LGP10-16 in the bath.

For data set [4], the system named is Male Wistar rats. In words: healing and local tolerability after subcutaneous injection in CCI rats. Format: in vivo, rat. As to the method:
(§1) Male Wistar rats with a body weight between 250 and 300 g were kept in standard laboratory conditions (12 h light/dark cycles, temperature 21° C.). Four groups were formed and treated once a day with a composition comprising an active ingredient: • Group 1 was administered 10% of LGP10-16. • Group 2 was administered 25% of LGP10-16. • Group 3 was administered 100% of LGP10-16. • A control group 4 was administered saline solution. Each group consisted of 15 rats.

Data set [5] relates to sciatic nerve ligation or chronic constriction injury (CCI) model. Briefly: von Frey filament test (mechanical allodynia), CCI model, subcutaneous injection. Type of data set: in vivo, rat. As to the method: as §1
The sciatic nerve ligation or chronic constriction injury (CCI) model for as described by Bennett and Xie was used. The sciatic nerve ligation model generates a peripheral nerve injury that causes the appearance of mechanical and thermal hyperalgesia, mechanical allodynia and sometimes signs of spontaneous pain can be observed, by the spontaneous 5 elevation of the paw. All these symptoms appear one week after nerve ligation and can last more than two months. The added value of the model is that each animal can be its own control, since the contralateral paw, not being injured, reflects normal values. […]

For data set [6], the system named is mouse vas deferens. In words: mouse vas deferens preparation, inhibition of contractile activity. As to the method:
In a second step, the effect of different concentrations of LGP10-16 on preparations of mouse vas deferens and guinea-pig ileum LMMP was studied.
After adding a concentration of the drug to the organ bath, it is left for 9 minutes to test its effect, after which the preparation is washed. At the end of the first concentration-response curve (left bars), it is left for 90 mins and the second curve is created (right bars).

The subject of data set [7] is sciatic nerve ligation or chronic constriction injury (CCI) model. Briefly: rodent pincher test (mechanical hyperalgesia), CCI model, subcutaneous injection. Format: in vivo, rat. Conditions: s.c. once a day; 10%, 25% and 100% LGP10-16. The method, then:
as §1
The sciatic nerve ligation or chronic constriction injury (CCI) model for as described by Bennett and Xie was used. The sciatic nerve ligation model generates a peripheral nerve injury that causes the appearance of mechanical and thermal hyperalgesia, mechanical allodynia and sometimes signs of spontaneous pain can be observed, by the spontaneous 5 elevation of the paw. All these symptoms appear one week after nerve ligation and can last more than two months. The added value of the model is that each animal can be its own control, since the contralateral paw, not being injured, reflects normal values.
Mechanical hyperalgesia was tested in the rodent pincher test. The rodent pincher algometer allows calibrated forceps to induce quantifiable mechanical stimulation in the animal. The pressure is applied in the “inter-digital” region. […]

[8] abbreviates: maximum concentration 25%, second curve.

SMILES strings stand for the structures.

What is called inhibition is the percentage by which the read-out fell short of the control.

With `FCOC(C(F)(F)F)C(F)(F)F` [LGP10-16, Sevoflurane], the “reversibility of the effect” value in data set [1] (25% dilution) is listed as “reversible”. Moreover, the “effect on nerve fibre firing capacity” value in data set [1] (25% dilution in nutrient solution, increasing pressure stimulus) is “inhibition of the nerve fibre firing capacity”. In addition, the “duration of the effect after a single application” value in data set [1] (25% dilution, maintained after washing the fibre) is given as “up to 90 minutes”. Besides, in data set [1] (25% solution), the “effect level reached with a 25% solution” value is recorded as “maximum effect was reached”. Besides, the “time spent in the compartment associated with drug administration (CPP)” value in data set [2] was “spent more time in the room associated with drug administration”. Moreover, the “effect when the preparation was not washed between the two curves” value in data set [3] (1% to 25%, without washing, more inhibitory at intermediate doses) is “somewhat greater”. Moreover, the “recovery of contractile capacity after washing after the first curve” value in data set [3] (25%, washed after first curve) was 100%; in data set [6] (25%, washed after first curve) it was “around 75%”. In data set [3] (25%, washed after second curve), the “recovery of function after washing after the second curve” value came to 100%. For the same compound, in data set [3] (concentration of 10% and 25%), the “inhibition of functional activity” value is on record as “complete (and reversible) inhibition”. Moreover, the “inhibition at the end of the first curve” value in data set [3] (increasing concentrations 1% to 25%, maximum 25%) came out at 100%; in data set [6] (maximum concentration 25%), 55%. For the same compound, the “inhibition at the end of the second curve” value was 100% in data set [3] (setting [8]) and 85% in data set [6] (setting [8]). For the same compound, the effect on healing entry in data set [4] (concentrations of 10% and 25%, s.c.) is “not negatively affected”. In addition, the local adverse findings entry in data set [4] (group 3, 100% LGP10-16, s.c.) is “skin irritation and blistering”. Further, the “side effects in animal models” value in data set [4] (summary statement) was “no relevant side effects”. The “difference with respect to the control (von Frey)” value in data set [5] (from the first run at day 7, all doses (10%, 25%, 100%)) is “statistically significant differences”. In addition, the “antiallodynic effect (von Frey)” value in data set [5] (s.c. once a day, 10%, 25% and 100% LGP10-16) was “dose- and time-dependent antiallodynic effect”. For the same compound, the Emax in data set [6] (Mus musculus, 25%, washed after second curve, read-out: contractile activity after washing after the second curve, of maximum response) came out at 50%. Also, in data set [6] (after changing the nutrient solution), the “persistence of the effect after washing” value is listed as “maintained even 90 minutes after washing the preparation”. In addition, the “inhibition of the contractile response” value in data set [6] (concentrations from 1% to 25% added to the bath, 9 minutes) is listed as “concentration-dependent inhibition”. For the same compound, the “antihyperalgesic effect (rodent pincher)” value in data set [7] is “dose and time-dependent”.

The values are drawn from patent US20260183225A1, “PHARMACEUTICAL COMPOSITION FOR TOPICAL ADMINISTRATION COMPRISING A VOLATILE ANAESTHETIC” (LABORATORIOS GEBRO PHARMA, S.A., priority 2022, published 2026).
